In patent US20090192227A1, “N-Acetylcysteine Compositions and Methods for Treating Acute Exacerbations of Inflammatory Lung Disease” (priority 2005, published 2009):
“Also recorded” adds a separate entry of the source.

How the values were obtained:
[1] = Phase I trial: perceived weight gain by CF QOL questionnaire; assay type: in vivo, human; conditions: 4 weeks
Description: (§1) With regards to efficacy, very significant positive effects of the treatment were documented. These positive effects (Table 2) included amelioration of: 1—Whole blood GSH (+11%, P=0.03), as measured by HPLC and blood neutrophil GSH (+17%, P=0.03), as measured by flow cytometry; 2—Live sputum leukocyte (−21%, P=0.03) and neutrophil (−25%, P=0.02) counts, as measured by microscopy and sputum elastase activity (−44%, P=0.02), as measured by kinetic spectrophotometry; and 3—Perceived weight gain (P=0.01), as measured by the CF QOL
Any sizeable change in lung function will likely require longer treatment and larger group size, which we look forward to implementing in the placebo-controlled phase of the study.

[2] = Phase I trial: lung function by spirometry; assay type: in vivo, human; conditions: short-term treatment (4 weeks)
Description: 3. Lung function, as measured by spirometry. Differences between basal and post-NAC values were studied by matched pair analysis, first, without distinguishing dose cohorts, to detect drug effects, and second, with dose cohorts as a factor, in order to detect potential dose effects. […] Any sizeable change in lung function will likely require longer treatment and larger group size, which we look forward to implementing in the placebo-controlled phase of the study.

[3] = tested on: interleukin-8 (IL-8); experiment: Phase I trial: sputum interleukin-8 (IL-8) by ELISA; assay type: in vivo, human; conditions: 3 patients excluded (N = 15), 4 weeks
Description: 2. Lung inflammation, as reflected chiefly by (i) sputum counts in total live leukocytes and neutrophils (along with % neutrophils in sputum); (iii) plasma/sputum levels of elastase and interleukin-8 (IL-8) measured by spectrophotometry and ELISA Differences between basal and post-NAC values were studied by matched pair analysis, first, without distinguishing dose cohorts, to detect drug effects, and second, with dose cohorts as a factor, in order to detect potential dose effects.

[4] = 600 mg three times daily plus prednisone plus azothioprine, one year, vs standard therapy alone; cited from earlier work
[5] = tested on: blood neutrophils; experiment: Phase I trial: absolute numbers of neutrophils in blood; assay type: in vivo, human; conditions: dose cohort 2 (2.4 g/d), 4 weeks
Description: Indeed, cohort 2 was more severely affected with regards to several surrogate markers of disease prior to treatment (lower FEV1, all infected with P. aeruginosa, lower perceived weight gain).

[6] = Phase 2 trial: exacerbations of sinus/lung disease, week 0 through week 12; assay type: in vivo, human; conditions: NAC group, placebo 7/9, P=0.04
Description: (§2) Summary. Based on the success of the phase I trial, the trial proceeded to phase II. This single-center trial consisted of a 12-week placebo-controlled section followed by a 12-week open label section, with oral NAC 0.9 g, taken three times daily. The statistical plan for the study was designed to assess the safety and efficacy of NAC versus placebo, at 0 week and 12-week timepoints (placebo-controlled section). Of the 24 subjects screened for eligibility, 21 were enrolled and randomized into NAC and placebo groups. One subject asked to be withdrawn from the prior to the 6 week time point because the medication regimen was too onerous. […] Two other subjects also were removed from participation in the study by the principal investigator due to poor adherence to the study protocol. […] Thus, 18 subjects are included in this intent-to-treat (ITT) analysis (9 on NAC and 9 on placebo).
During week 0 through week12, exacerbations of sinus/lung disease affected 9/18 subjects. Subjects were less prone to exacerbations in the NAC than in the placebo group (2/9 vs. 7/9, respectively, P=0.04, Fisher's exact test). […]

[7] = tested on: human neutrophil elastase (HNE); experiment: Phase 2 trial: sputum HNE protein levels; assay type: in vivo
Description: as §2
(§3) Intention-to-treat analysis of efficacy endpoints. Besides the necessary assessment of the safety of high-dose oral NAC in a placebo-controlled setting, this phase 2 trial also was designed to gain a better understanding of treatment efficacy with regards to improving inflammation, redox imbalance and lung function in CF, albeit within the limits inherent to a small study. […] The primary efficacy endpoint in this phase 2 study is sputum neutrophil count (based on the quantification of live neutrophils by microscopy, reflecting lung inflammation) and the four secondary efficacy endpoints are: (i) FEV1 (% Pred), reflecting lung function; (ii) blood neutrophil GSH, reflecting systemic redox imbalance; (iii) sputum HNE activity, reflecting lung inflammation, the current best predictor of CF lung disease; and (iv) whole blood GSH, reflecting systemic redox imbalance. […]
(§4) These various markers of inflammation were measured independently with different methodologies (e.g., microscopy, kinetic spectrophotometry, enzyme-linked immunosorbent assay), the results of which further strengthen the significance of these positive outcomes. […]

[8] = Phase 2 trial: FEV1 (% Pred), lung function; assay type: in vivo, human
Description: as §2
Intention-to-treat analysis of efficacy endpoints. Besides the necessary assessment of the safety of high-dose oral NAC in a placebo-controlled setting, this phase 2 trial also was designed to gain a better understanding of treatment efficacy with regards to improving inflammation, redox imbalance and lung function in CF, albeit within the limits inherent to a small study. In particular, the study looked to confirm the positive effects of high-dose oral NAC seen on sputum neutrophil count and HNE activity obtained in phase 1. The primary efficacy endpoint in this phase 2 study is sputum neutrophil count (based on the quantification of live neutrophils by microscopy, reflecting lung inflammation) and the four secondary efficacy endpoints are: (i) FEV1 (% Pred), reflecting lung function; (ii) blood neutrophil GSH, reflecting systemic redox imbalance; (iii) sputum HNE activity, reflecting lung inflammation, the current best predictor of CF lung disease; and (iv) whole blood GSH, reflecting systemic redox imbalance. Data on all other main efficacy endpoints (along with sputum HNE and IL-8 protein levels as additional indicators of inflammation) is presented in Table 3 (below) for all 9 subjects of the NAC group and 9 subjects in the placebo group included in the ITT analysis.

[9] = more stable than cysteine; cited from earlier work
[10] = 600 mg oral NAC per day, at least two exacerbations per year for 2 years; cited from earlier work
[11] = tested on: interleukin-17 (IL-17); experiment: Phase 2 trial: plasma levels of interleukin-17 (IL-17); assay type: in vivo, human; conditions: NAC group compared to placebo group, P=0.02
Description: During week 0 through week12, exacerbations of sinus/lung disease affected 9/18 subjects. Subjects were less prone to exacerbations in the NAC than in the placebo group (2/9 vs. 7/9, respectively, P=0.04, Fisher's exact test). A key molecular correlate of exacerbations, namely plasma levels of the cytokine interleukin-17 (IL-17) also was decreased in the NAC group compared to the placebo-group (P=0.02), further confirming the anti-inflammatory effect of NAC in CF and corroborating its positive effect on acute attacks. IL-17 recently has been identified as a potent T-cell derived modulator of acute neutrophilic lung inflammation [Linden, A., et al. Neutrophils, interleukin-17A and lung disease. Eur. Respir. J. 25:159-172 (2008)]

[12] = tested on: human neutrophil elastase (HNE); experiment: Phase 2 trial: sputum HNE enzymatic activity; assay type: in vivo
Description: as §2, §3, §4

[13] = administered intravenously in dogs; cited from earlier work
[14] = systematic review of randomized controlled trials; cited from earlier work
[15] = tested on: interleukin-8; experiment: Phase 2 trial: sputum IL-8 protein levels; assay type: in vivo, human
Description: as §2, §3, §4

[16] = tested on: sputum neutrophils; experiment: Phase 2 trial: sputum neutrophil count (live neutrophils by microscopy); assay type: in vivo, human
Description: as §2
Intention-to-treat analysis of efficacy endpoints. Besides the necessary assessment of the safety of high-dose oral NAC in a placebo-controlled setting, this phase 2 trial also was designed to gain a better understanding of treatment efficacy with regards to improving inflammation, redox imbalance and lung function in CF, albeit within the limits inherent to a small study. In particular, the study looked to confirm the positive effects of high-dose oral NAC seen on sputum neutrophil count and HNE activity obtained in phase 1. The primary efficacy endpoint in this phase 2 study is sputum neutrophil count (based on the quantification of live neutrophils by microscopy, reflecting lung inflammation) and the four secondary efficacy endpoints are: (i) FEV1 (% Pred), reflecting lung function; (ii) blood neutrophil GSH, reflecting systemic redox imbalance; (iii) sputum HNE activity, reflecting lung inflammation, the current best predictor of CF lung disease; and (iv) whole blood GSH, reflecting systemic redox imbalance. […]

[17] = Phase 2 placebo-controlled CF trial: safety, adverse events, adherence, CF QOL; assay type: in vivo, human
Description: Summary. […] This single-center trial consisted of a 12-week placebo-controlled section followed by a 12-week open label section, with oral NAC 0.9 g, taken three times daily. The statistical plan for the study was designed to assess the safety and efficacy of NAC versus placebo, at 0 week and 12-week timepoints (placebo-controlled section).
Serious adverse events and adverse events. […] As used herein, the term “DIOS”, which stands for “Distal Intestinal Obstruction Syndrome” refers to a condition unique to CF that occurs due to the accumulation of viscous mucous and fecal material in the terminal ileum, caecum and ascending colon, which may cause progressive symptoms of recurrent colicky abdominal pain, bloating, nausea and anorexia, and signs of small intestinal obstruction.

[18] = tested on: elastase; experiment: Phase I trial: sputum elastase activity by kinetic spectrophotometry; assay type: in vivo, human; conditions: 4 weeks
Description: as §1
(§5) 2. Lung inflammation, as reflected chiefly by (i) sputum counts in total live leukocytes and neutrophils (along with % neutrophils in sputum); (iii) plasma/sputum levels of elastase and interleukin-8 (IL-8) measured by spectrophotometry and ELISA
(§6) Differences between basal and post-NAC values were studied by matched pair analysis, first, without distinguishing dose cohorts, to detect drug effects, and second, with dose cohorts as a factor, in order to detect potential dose effects.

[19] = tested on: blood neutrophil GSH; experiment: Phase 2 trial: blood neutrophil intracellular GSH; assay type: in vivo, human; conditions: NAC group (n=9), ITT
Description: Summary. Based on the success of the phase I trial, the trial proceeded to phase II. This single-center trial consisted of a 12-week placebo-controlled section followed by a 12-week open label section, with oral NAC 0.9 g, taken three times daily. The statistical plan for the study was designed to assess the safety and efficacy of NAC versus placebo, at 0 week and 12-week timepoints (placebo-controlled section). Of the 24 subjects screened for eligibility, 21 were enrolled and randomized into NAC and placebo groups. One subject asked to be withdrawn from the prior to the 6 week time point because the medication regimen was too onerous. […] Two other subjects also were removed from participation in the study by the principal investigator due to poor adherence to the study protocol. […]
Intention-to-treat analysis of efficacy endpoints. […] The primary efficacy endpoint in this phase 2 study is sputum neutrophil count (based on the quantification of live neutrophils by microscopy, reflecting lung inflammation) and the four secondary efficacy endpoints are: (i) FEV1 (% Pred), reflecting lung function; (ii) blood neutrophil GSH, reflecting systemic redox imbalance; (iii) sputum HNE activity, reflecting lung inflammation, the current best predictor of CF lung disease; and (iv) whole blood GSH, reflecting systemic redox imbalance. […]

[20] = tested on: sputum leukocytes and neutrophils; experiment: Phase I trial: sputum counts of live leukocytes and neutrophils by microscopy; assay type: in vivo, human; conditions: 4 weeks
Description: as §1, §5, §6

[21] = doses less than NAC; effects counter to those reported for NAC; cited from earlier work
[22] = NAC group (n=9), ITT, oral 0.9 g three times daily, week 12
[23] = NAC group (n=9), ITT, week 0 baseline
[24] = phase 2, wk 0 vs wk 12, not in placebo group
[25] = All (N = 18), basal vs post-NAC

CC(=O)N[C@@H](CS)C(=O)O [NAC, N-acetylcysteine]
Perceived weight gain, change ([1]; 3 patients excluded (N = 15)): Increased | Perceived weight gain, change ([1]; All (N = 18), CF QOL): Increased | Pulmonary Function Testing results (spirometry) [2]: not changed; also recorded: none of the parameters measured by spirometry showed any change | IL-8 in sputum, change [3]: −25% | Deterioration of vital capacity and DLCO in IPF [4]: slows the deterioration | Decrease in absolute numbers of neutrophils in blood [5]: 27% | Subjects with exacerbations of sinus/lung disease [6]: 2/9 | Sputum HNE protein levels (Log10), Value wk 12 [7, 22]: −0.27 ± 0.12 Log10 | Sputum HNE protein levels (Log10), Value wk 0 [7, 23]: 0.04 ± 0.13 Log10 | Sputum HNE protein levels, change within NAC group [7, 24]: significant decreases; also recorded: significantly decreased | Decline in pulmonary function tests (PFTs) ([8]; ITT analysis over the course of the phase 2 trial): no significant decline | Functional expiratory volume in 1s (% Pred), Value wk 12 [8, 22]: 75.6 ± 8.2 % Pred | Functional expiratory volume in 1s (% Pred), Value wk 0 [8, 23]: 73.7 ± 7.6 % Pred | FEV1 (% Pred), effect ([8]; phase 2, 12 weeks): No significant effect; also recorded: failed to detect any significant improvement | Stability relative to cysteine [9]: about 10 times | Prevention of deterioration in lung function and exacerbations in COPD [10]: ineffective | Plasma levels of IL-17 [11]: decreased | Sputum HNE enzymatic activity (Log10), Value wk 12 [12, 22]: 3.16 ± 0.20 Log10 | Sputum HNE enzymatic activity (Log10), Value wk 0 [12, 23]: 3.61 ± 0.15 Log10 | Sputum HNE enzymatic activity, change within NAC group [12, 24]: significant decreases; also recorded: significantly decreased | Pulmonary oxygen toxicity and ischemic and reperfusion damage [13]: protect | Early mortality in ARDS and ALI [14]: no effect | Sputum IL-8 protein levels (Log10), Value wk 12 [15, 22]: 1.81 ± 0.18 Log10 | Sputum IL-8 protein levels (Log10), Value wk 0 [15, 23]: 2.01 ± 0.12 Log10 | Sputum IL-8 protein levels, change within NAC group [15, 24]: significant decreases; also recorded: significantly decreased | Sputum neutrophil count (Log10), Value wk 12 [16, 22]: 1.24 ± 0.18 Log10 | Sputum neutrophil count (Log10), Value wk 0 [16, 23]: 1.41 ± 0.17 Log10 | Sputum neutrophil count, change within NAC group ([16]; phase 2, wk 0 vs wk 12, 0.9 g three times daily, not in placebo group): significant decreases; also recorded: significantly decreased | Complete blood count and chemistry parameters ([17]; 12-week treatment, marginal changes in red blood cell distribution width and calcium, within normal range): not affected | Flatulence (CF QOL questionnaires) ([17]; NAC group, not in the placebo group, 12 weeks): significant reduction | Liver enzymes ([17]; phase 2, 12 weeks): No change | Tolerability ([17]; phase 2, oral 0.9 g three times daily, 12 weeks): very well tolerated; also recorded: lack of toxicity | Elastase in sputum, change ([18]; 3 patients excluded (N = 15)): −46% | Elastase in sputum, change [18, 25]: −44% | Blood neutrophil intracellular GSH, Value wk 12 ([19]; oral 0.9 g three times daily, week 12): 4.10 ± 0.10 | Blood neutrophil intracellular GSH, Value wk 0 ([19]; week 0 baseline): 4.04 ± 0.08 | Live sputum leukocytes, change ([20]; 3 patients excluded (N = 15)): −28% | Live sputum neutrophils, change ([20]; 3 patients excluded (N = 15)): −32% | Neutrophils sputum (%), change ([20]; 3 patients excluded (N = 15)): −9% | Live sputum leukocytes, change [20, 25]: −21% | Live sputum neutrophils, change [20, 25]: −25%

CC(=O)N[C@@H](CSSC[C@H](NC(C)=O)C(=O)O)C(=O)O [oxidized form of NAC, di-N-acetylcysteine]
Bioactive dose relative to NAC [21]: 10-100 fold
